# Results reported in patent publication US6849596B1, “Regulatory/unfolding peptides of ezrin” (priority 1999, dated 2005).
# “Also recorded” adds a separate entry of the source.
# Tests used:
# [1] = tested on: HLA Class I on human White Blood Cells; experiment: Expression of MHC (HLA) Class I on human White Blood Cells; assay type: cell-based; conditions: 0.003 micrograms per ml
# From the text: A cell specific effect of this activation was an increase in the population of monocytes expressing MHC Class I and a decrease in the population of CD8 lymphocytes expressing MHC Class I.
# [2] = tested on: human Peripheral Blood Mononuclear Cells; experiment: In vitro activation of human PBMC, tritiated thymidine incorporation; assay type: cell-based; conditions: for incorporation of 3H thymidine: three days, Control 370
# [3] = tested on: antibody forming cells against sheep erythocytes (SRBC); experiment: Antibody forming cells against sheep erythocytes (SRBC) in mice, plaque count; assay type: in vivo; conditions: four days after SRBC, thirty mice per data point
# Procedure: Activity of Hepreceptor Peptides Enhancing the Antibody-Dependent Cytotoxic Response in […] to Sheep Red Blood Cells (SRBC) in Mice
# The influence of Hepreceptor peptides on the activation of antibody forming cells against sheep erythocytes (SRBC) in Mice (CBA-C57B1 Fi hybrids. 2 months old, weight 18-22 grams) was determined. Mice were first injected intraperitoneally using either 0.5 ml sterile saline as a control or Hepreceptor peptides in the same volume of saline. 30 minutes after the injection of Hepreceptor peptides, a cell suspension containing 5 million SRBC was administered intraperitoneally to each mouse. Four days after the immunisation, the mice were killed by cervical dislocation and the spleens were obtained aseptically. Each spleen was homogenised in 2 ml of Medium 199, then 100 microliters of this suspension was put into 1 ml of prepared agarose in Medium 199 (stored in water bath at 48° C.), SRBC suspension was added, resulting in a final concentration of 1% agarose. The Im1 of agarose-cell mixture was agitated then transferred to petri dish to set. When the agarose became solid, the petri dish was incubated for 1 hour at 37° C. then 0.5 ml of 1-in-20 diluted guinea pig serum in Medium 199 was added on top of agarose gel as a source of complement. The incubation was continued for another 1 hour. The dishes were then visualised using an 8×binocular microscope and the number of plaques counted (each plaque equivalent to one antibody secreting mouse spleen cell). The results were expressed both as the number of antibody secreting cells per one million nucleated spleen cells and the number of antibody secreting cells per whole spleen.
# Averaged data (from thirty mice per data point) of the number of antibody forming cells per one million nucleated spleen cells. The data was re-based relative to 100 for each control group.
sequence,measurement,setting,value
KKRRETVERE (Hepreceptor peptide) [Rupe312],relative activity in lowering intensity of HLA expression on WBC,[1]; 24 hours,more active than Rupe 414
same,"Density of cell surface expression of HLA Class I, rebased to 100 for control","[1]; B and NK cells, 24 hours",73
same,"Percentage of cell population expressing HLA Class I, rebased to 100 for control","[1]; B and NK cells, 24 hours",105
same,"Density of cell surface expression of HLA Class I, rebased to 100 for control","[1]; CD4 lymphocytes, 24 hours",70
same,"Percentage of cell population expressing HLA Class I, rebased to 100 for control","[1]; CD4 lymphocytes, 24 hours",104
same,"Density of cell surface expression of HLA Class I, rebased to 100 for control","[1]; CD8 lymphocytes, 24 hours",72
same,"Percentage of cell population expressing HLA Class I, rebased to 100 for control","[1]; CD8 lymphocytes, 24 hours",85
same,"Density of cell surface expression of HLA Class I, rebased to 100 for control","[1]; Granulocytes, 24 hours",81
same,"Percentage of cell population expressing HLA Class I, rebased to 100 for control","[1]; Granulocytes, 24 hours",98
same,"Percentage of cell population expressing HLA Class I, rebased to 100 for control","[1]; Monocytes/Macrophages, 24 hours",119
same,"Density of cell surface expression of HLA Class I, rebased to 100 for control","[1]; Monocytes/Macrophages, 24 hours at 37° C.",71
same,activity relative to HEP1,"[2]; PBMC activation, thymidine incorporation",significantly more active than HEP1; also recorded: ten fold higher activity than HEP1
same,concentration of peak activity,[2]; PBMC proliferation,around 3 nanograms/ml
same,incorporation of 3H thymidine,[2]; Peptide 0.0001 micro g/ml,563 radioactive counts per minute
same,incorporation of 3H thymidine,[2]; Peptide 0.0003 micro g/ml,742 radioactive counts per minute
same,incorporation of 3H thymidine,[2]; Peptide 0.001 micro g/ml,976 radioactive counts per minute
same,incorporation of 3H thymidine,[2]; Peptide 0.003 micro g/ml,3222 radioactive counts per minute
same,incorporation of 3H thymidine,[2]; Peptide 0.01 micro g/ml,656 radioactive counts per minute
same,incorporation of 3H thymidine,[2]; Peptide 0.03 micro g/ml,539 radioactive counts per minute
same,incorporation of 3H thymidine,[2]; Peptide 0.1 micro g/ml,533 radioactive counts per minute
same,incorporation of 3H thymidine,[2]; Peptide 0.3 micro g/ml,611 radioactive counts per minute
same,incorporation of 3H thymidine,[2]; Peptide 1 micro g/ml,472 radioactive counts per minute
same,incorporation of 3H thymidine,[2]; Peptide 3 micro g/ml,455 radioactive counts per minute
same,incorporation of 3H thymidine,[2]; Peptide 10 micro g/ml,405 radioactive counts per minute
same,"number of antibody forming cells per one million nucleated spleen cells, re-based relative to 100 for control",[3]; IP injection 1 microgram per mouse,317
same,"number of antibody forming cells per one million nucleated spleen cells, re-based relative to 100 for control",[3]; IP injection 10 micrograms per mouse,267
